Source: publication PMC7316388 (European journal of cell biology, 2010)

Target: CREB (Mus musculus, UniProt Q01147)
Assay: chromatin immunoprecipitation, CREB binding to c-fos promoter
Assay type: cell-based
Conditions: 100 μM compound with lipofectamine, 24 h, NIH3T3 cells

CREB, sequence (Q01147 whole entry): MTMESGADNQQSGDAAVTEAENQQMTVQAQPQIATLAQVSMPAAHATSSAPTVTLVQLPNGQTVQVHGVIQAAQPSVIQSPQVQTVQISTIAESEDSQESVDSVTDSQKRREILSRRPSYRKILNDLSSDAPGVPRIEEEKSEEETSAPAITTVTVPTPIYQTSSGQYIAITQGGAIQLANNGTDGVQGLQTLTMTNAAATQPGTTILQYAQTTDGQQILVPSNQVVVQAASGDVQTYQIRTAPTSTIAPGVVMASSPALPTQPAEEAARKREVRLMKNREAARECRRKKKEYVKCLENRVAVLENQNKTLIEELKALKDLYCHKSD

SMILES: O=S(=O)(O)c1cc[c]([Sb](=[O])([OH])[OH])cc1 [NSC13746]
- % reduction in CREB DNA binding at 100 μM: 30%
